pEC50: −log10 of the molar value.
What follows are compounds tested against REV-ERBα LBD (Homo sapiens, UniProt P20393, DEL324-422) (assay: biochemical). Conditions: FRET assay; 6xHistag-REV-ERBα LBD with FITC-labeled SMRT corepressor peptide; read-out: REVERBα (Agonism of REV-ERBα, EC50).
How it was run: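 Serially diluted ligands were incubated 2 h at 4° C, in triplicate, with E. coli-expressed His-REV-ERBα LBD (281-614 Δ324-422 or 381-579; 4 nM), Tb-anti-His (1 nM) and FITC-labelled SMRT peptide (400 nM). EC50 came from sigmoidal fits of the 520/495 nm TR-FRET ratio.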

Sequence of REV-ERBα LBD (P20393 with tags, fused parts or gaps DEL324-422): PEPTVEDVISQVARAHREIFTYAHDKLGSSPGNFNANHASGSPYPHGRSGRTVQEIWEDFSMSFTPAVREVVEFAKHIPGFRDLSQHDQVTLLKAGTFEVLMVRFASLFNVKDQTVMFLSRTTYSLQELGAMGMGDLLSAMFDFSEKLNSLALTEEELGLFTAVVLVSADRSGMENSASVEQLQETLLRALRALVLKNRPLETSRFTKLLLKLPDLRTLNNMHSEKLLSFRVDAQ
Sequence of REV-ERBα LBD (Q9Y618 2335-2356 partner limits assumed): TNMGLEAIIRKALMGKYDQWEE

pEC50 | Compound
< 6.00 | O=S(=O)(N[C@@H](c1cn(C2CNC2)c2cc(-c3ccc(F)cc3C(F)(F)F)c(F)cc12)C(F)F)C1CC1 [Compound 152, (S)—N-(1-(1-(azetidin-3-yl)-5-fluoro-6-(4-fluoro-2-(trifluoromethyl)phenyl)-1H-indol-3-yl)-2,2-difluoroethyl)cyclopropanesulfonamide]
> 7.00 | CC(C)(C)Cn1cc([C@H](NS(=O)(=O)C2CC2)C(F)F)c2cc(F)c(-c3cccnc3C(F)(F)F)nc21 [Compound 145, (S)—N-(2,2-difluoro-1-(5-fluoro-1-neopentyl-6-(2-(trifluoromethyl)pyridin-3-yl)-1H-pyrrolo[2,3-b]pyridin-3-yl)ethyl)cyclopropanesulfonamide]
> 7.00 | CC(NS(=O)(=O)C1CC1)c1cn(CC(C)(C)C)c2cc(-c3ncccc3C#N)c(F)cc12 (single isomer, unassigned) [Compound 19, (R or S)—N-(1-(6-(3-cyanopyridin-2-yl)-5-fluoro-1-neopentyl-1H-indol-3-yl)ethyl)cyclopropanesulfonamide]
> 7.00 | CC(C)(C)Cn1cc([C@H](NS(=O)(=O)C2CC2)C(F)F)c2cc(F)c(-c3ncc(F)cc3C#N)cc21 [Compound 94, (S)—N-(1-(6-(3-cyano-5-fluoropyridin-2-yl)-5-fluoro-1-neopentyl-1H-indol-3-yl)-2,2-difluoroethyl)cyclopropanesulfonamide]
> 7.00 | N#CC1CC(n2cc([C@H](NS(=O)(=O)C3CC3)C(F)F)c3cc(F)c(-c4ccc(F)cc4C(F)(F)F)cc32)C1 (stereo partly drawn) [Compound 179, (S)—N-(1-(1-(3-cyanocyclobutyl)-5-fluoro-6-(4-fluoro-2-(trifluoromethyl)phenyl)-1H-indol-3-yl)-2,2-difluoroethyl)cyclopropanesulfonamide]
> 7.00 | O=S(=O)(N[C@@H](c1cn(C2CCC2)c2cc(-c3cccnc3C(F)(F)F)c(F)cc12)C(F)F)C1CC1 [Compound 146, (S)—N-(1-(1-cyclobutyl-5-fluoro-6-(2-(trifluoromethyl)pyridin-3-yl)-1H-indol-3-yl)-2,2-difluoroethyl)cyclopropanesulfonamide]
> 7.00 | CC(C)(C)Cn1cc([C@H](NS(=O)(=O)C2CC2)C(F)F)c2ccc(-c3cccnc3C(F)(F)F)cc21 [Compound 13, (S)—N-(2,2-difluoro-1-(1-neopentyl-6-(2-(trifluoromethyl)pyridin-3-yl)-1H-indol-3-yl)ethyl)cyclopropanesulfonamide]
> 7.00 | CC(C)(C)Cn1cc([C@H](NS(=O)(=O)C2CC2)C(F)F)c2cc(F)c(-c3cccnc3C(F)(F)F)cc21 [Compound 38, (S)—N-(2,2-difluoro-1-(5-fluoro-1-neopentyl-6-(2-(trifluoromethyl)pyridin-3-yl)-1H-indol-3-yl)ethyl)cyclopropanesulfonamide]
> 7.00 | CC(C)(C)Cn1cc([C@H](NS(=O)(=O)C2CC2)C(F)F)c2cc(F)c(-c3cc(F)cnc3C(F)(F)F)cc21 [Compound 132, (S)—N-(2,2-difluoro-1-(5-fluoro-6-(5-fluoro-2-(trifluoromethyl)pyridin-3-yl)-1-neopentyl-1H-indol-3-yl)ethyl)cyclopropanesulfonamide]
> 7.00 | CC(C)S(=O)(=O)N[C@@H](c1cn(CC(C)(C)C)c2cc(-c3cccnc3C(F)(F)F)c(F)cc12)C(F)F [Compound 42, (S)—N-(2,2-difluoro-1-(5-fluoro-1-neopentyl-6-(2-(trifluoromethyl)pyridin-3-yl)-1H-indol-3-yl)ethyl)propane-2-sulfonamide]
6.00 to 7.00 | CC(NS(=O)(=O)C1CC1)c1cn(CC(C)(C)C)c2cc(-c3cnccc3F)c(F)cc12 (centres unmarked) [Compound 72, N-(1-(5-fluoro-6-(4-fluoropyridin-3-yl)-1-neopentyl-1H-indol-3-yl)ethyl)cyclopropanesulfonamide]
> 7.00 | CC(C)(C)Cn1cc([C@H](NS(=O)(=O)C2CC2)C(F)F)c2cc(F)c(-c3c(F)cccc3C(F)F)cc21 [Compound 116, N-((1S)-1-(6-(2-(difluoromethyl)-6-fluorophenyl)-5-fluoro-1-neopentyl-1H-indol-3-yl)-2,2-difluoroethyl)cyclopropanesulfonamide]
> 7.00 | CC(C)(C)Cn1cc([C@H](NS(=O)(=O)C2CC2)C(F)F)c2ccc(-c3nccnc3C(F)(F)F)cc21 [Compound 47, (S)—N-(2,2-difluoro-1-(1-neopentyl-6-(3-(trifluoromethyl)pyrazin-2-yl)-1H-indol-3-yl)ethyl)cyclopropanesulfonamide]
> 7.00 | CC(C)(C)Cn1cc([C@H](NS(=O)(=O)C2CC2)C(F)F)c2cc(F)c(-c3ccc(F)cc3C(F)(F)F)cc21 [Compound 164, (S)—N-(2,2-difluoro-1-(5-fluoro-6-(4-fluoro-2-(trifluoromethyl)phenyl)-1-neopentyl-1H-indol-3-yl)ethyl)cyclopropanesulfonamide]
> 7.00 | Cc1ccncc1-c1cc2c(cc1F)c(C(C)NS(=O)(=O)C1CC1)cn2CC(C)(C)C (centres unmarked) [Compound 71, N-(1-(5-fluoro-6-(4-methylpyridin-3-yl)-1-neopentyl-1H-indol-3-yl)ethyl)cyclopropanesulfonamide]
6.00 to 7.00 | CC(C)(C)Cn1cc([C@H](NS(=O)(=O)C2CC2)C(F)F)c2ccc(-c3c(C#N)ccnc3C(F)(F)F)cc21 [Compound 52, (S)—N-(1-(6-(4-cyano-2-(trifluoromethyl)pyridin-3-yl)-1-neopentyl-1H-indol-3-yl)-2,2-difluoroethyl)cyclopropanesulfonamide]
> 7.00 | Cc1ccnc(C(F)F)c1-c1cc2c(cc1F)c([C@H](NS(=O)(=O)C1CC1)C(F)F)cn2CC(C)(C)C [Compound 127, N-((1S)-1-(6-(2-(difluoromethyl)-4-methylpyridin-3-yl)-5-fluoro-1-neopentyl-1H-indol-3-yl)-2,2-difluoroethyl)cyclopropanesulfonamide]
6.00 to 7.00 | CC(C)(C)Cn1cc([C@H](NS(=O)(=O)C2CC2)C(F)(F)F)c2cc(F)c(-c3cccnc3C(F)(F)F)cc21 [Compound 8, (S)—N-(2,2,2-trifluoro-1-(5-fluoro-1-neopentyl-6-(2-(trifluoromethyl)pyridin-3-yl)-1H-indol-3-yl)ethyl)cyclopropanesulfonamide]
6.00 to 7.00 | CC(NS(=O)(=O)C1CC1)c1cn(CC(C)(C)C)c2cc(C3CCOCC3)ccc12 (single isomer, unassigned) [Compound 24, (S or R) N-(1-(1-neopentyl-6-(tetrahydro-2H-pyran-4-yl)-1H-indol-3-yl)ethyl)cyclopropanesulfonamide]
> 7.00 | CC(C)(C)Cn1cc([C@H](NS(=O)(=O)C2CC2)C(F)F)c2cc(F)c(-c3nccnc3C(F)(F)F)cc21 [Compound 57, (S)—N-(2,2-difluoro-1-(5-fluoro-1-neopentyl-6-(3-(trifluoromethyl)pyrazin-2-yl)-1H-indol-3-yl)ethyl)cyclopropanesulfonamide]
> 7.00 | CC(C)(C)Cn1cc([C@H](NS(=O)(=O)C2CC2)C(F)F)c2ccc(-c3cccnc3C(F)F)cc21 [Compound 87, (S)—N-(1-(6-(2-(difluoromethyl)pyridin-3-yl)-1-neopentyl-1H-indol-3-yl)-2,2-difluoroethyl)cyclopropanesulfonamide]
> 7.00 | [2H]C1([2H])CC(S(=O)(=O)N[C@@H](c2cn(CC(C)(C)C)c3cc(-c4ccccc4C(F)(F)F)ccc23)C(F)F)C1 [Compound 163, (S)—N-(2,2-difluoro-1-(1-neopentyl-6-(2-(trifluoromethyl)phenyl)-1H-indol-3-yl)ethyl)cyclobutane-1-sulfonamide-3,3-d2]
6.00 to 7.00 | COc1cccc(C#N)c1-c1ccc2c([C@H](NS(=O)(=O)C3CC3)C(F)(F)F)cn(CC(C)(C)C)c2c1 [Compound 7, (S)—N-(1-(6-(2-cyano-6-methoxyphenyl)-1-neopentyl-1H-indol-3-yl)-2,2,2-trifluoroethyl)cyclopropanesulfonamide]
> 7.00 | CC(C)(C)Cn1cc([C@H](NS(=O)(=O)C2CC2)C(F)F)c2ccc(-c3ncccc3C(F)(F)F)cc21 [Compound 39, (S)—N-(2,2-difluoro-1-(1-neopentyl-6-(3-(trifluoromethyl)pyridin-2-yl)-1H-indol-3-yl)ethyl)cyclopropanesulfonamide]
> 7.00 | O=c1ccc(-c2nc3c(cc2F)c([C@H](NS(=O)(=O)C2CC2)C(F)F)cn3C2CCC2)c(C(F)(F)F)[nH]1 [Compound 175, (S)—N-(1-(1-cyclobutyl-5-fluoro-6-(6-oxo-2-(trifluoromethyl)-1,6-dihydropyridin-3-yl)-1H-pyrrolo[2,3-b]pyridin-3-yl)-2,2-difluoroethyl)cyclopropanesulfonamide]
6.00 to 7.00 | CC(NS(=O)(=O)C1CC1)c1cn(CC(C)(C)C)c2cc(-c3c(F)cccc3C#N)ccc12 (single isomer, unassigned) [Compound 26, (R or S) N-(1-(6-(2-cyano-6-fluorophenyl)-1-neopentyl-1H-indol-3-yl)ethyl)cyclopropanesulfonamide]
> 7.00 | O=S(=O)(N[C@@H](c1cn(C2CC(F)C2)c2cc(-c3cc(F)cnc3C(F)(F)F)c(F)cc12)C(F)F)C1CC1 (stereo partly drawn) [Compound 182, (S)—N-(2,2-difluoro-1-(5-fluoro-6-(5-fluoro-2-(trifluoromethyl)pyridin-3-yl)-1-(3-fluorocyclobutyl)-1H-indol-3-yl)ethyl)cyclopropanesulfonamide]
> 7.00 | CC(NS(=O)(=O)C1CC1)c1cn(CC(C)(C)C)c2cc(-c3cnccc3Cl)c(F)cc12 (centres unmarked) [Compound 73, N-[1-[6-(4-chloro-3-pyridyl)-1-(2,2-dimethylpropyl)-5-fluoro-indol-3-yl]ethyl]cyclopropanesulfonamide]
> 7.00 | CC(C)(C)Cn1cc([C@H](NS(=O)(=O)C2CCC2)C(F)F)c2cc(F)c(-c3ccc(F)cc3C(F)(F)F)cc21 [Compound 170, (S)—N-(2,2-difluoro-1-(5-fluoro-6-(4-fluoro-2-(trifluoromethyl)phenyl)-1-neopentyl-1H-indol-3-yl)ethyl)cyclobutanesulfonamide]
